Patent publication US9636417B2, “Mucosal membrane receptor and uses thereof” (Universiteit Gent, priority 2008, dated 2017)
Entries after “also recorded” stand apart in the source; their conditions may differ.

Experiments:
pAPN-BHK-21 cells = assay: Endocytosis assay (confocal microscopy) of FLUOS-labeled-F4 with chemical inhibitors; assay type: cell-based, porcine; settings: for effect on F4 internalization in pAPN-BHK cells: different concentrations, inhibitor added 30 min before FLUOS-labeled-F4
Method: Cells were then washed with PBS supplemented with 0.1 mM CaCl2 and 1 mM MgCl2 (PBS+) to remove unbound FLUOS-labeled-F4 and shifted to 37° C. to start endocytosis. After different time intervals, cells were fixed with 3% paraformaldehyde (PF), permeabilized with 0.1% Triton X-100 and stained with 200 nM phalloidin-Texas Red (Molecular Probes, Eugene, Oreg., USA) in PBS+ for 1 h at 37° C. To analyze the effect of different inhibitors on endocytosis, cells were incubated with different concentrations of each inhibitor (Table 1). Inhibitors were added 30 min before incubation with FLUOS-labeled-F4 (25 μg). Cells were fixed with 3% PF at the indicated times. For each concentration of the chemical inhibitors, the viability of the cells was analyzed by flow cytometry after the addition of 10 μg propidium iodide (Molecular Probes, Eugene, Oreg., USA). The number of vesicles internalized in the cells was counted using confocal microscopy. Confocal images were acquired using a Leica TCS SP2 laser scanning spectrum confocal system (Leica Microsystems), using an argon 488-nm laser line and a […] 543-nm laser line to excite FITC and Texas Red respectively. Images were merged using Leica confocal software.

[1] = target: T1, pAPN transfected BHK-21 cells (Sus scrofa, UniProt P15145); assay: Flow cytometry of FLUOS-labeled-F4 binding to pAPN transfected BHK-21 cells; assay type: cell-based, porcine
T1 construct: expressed in transfected cells; host or cells: BHK-21 (baby hamster kidney), G418-selected; gift
T1 sequence (P15145 1-963): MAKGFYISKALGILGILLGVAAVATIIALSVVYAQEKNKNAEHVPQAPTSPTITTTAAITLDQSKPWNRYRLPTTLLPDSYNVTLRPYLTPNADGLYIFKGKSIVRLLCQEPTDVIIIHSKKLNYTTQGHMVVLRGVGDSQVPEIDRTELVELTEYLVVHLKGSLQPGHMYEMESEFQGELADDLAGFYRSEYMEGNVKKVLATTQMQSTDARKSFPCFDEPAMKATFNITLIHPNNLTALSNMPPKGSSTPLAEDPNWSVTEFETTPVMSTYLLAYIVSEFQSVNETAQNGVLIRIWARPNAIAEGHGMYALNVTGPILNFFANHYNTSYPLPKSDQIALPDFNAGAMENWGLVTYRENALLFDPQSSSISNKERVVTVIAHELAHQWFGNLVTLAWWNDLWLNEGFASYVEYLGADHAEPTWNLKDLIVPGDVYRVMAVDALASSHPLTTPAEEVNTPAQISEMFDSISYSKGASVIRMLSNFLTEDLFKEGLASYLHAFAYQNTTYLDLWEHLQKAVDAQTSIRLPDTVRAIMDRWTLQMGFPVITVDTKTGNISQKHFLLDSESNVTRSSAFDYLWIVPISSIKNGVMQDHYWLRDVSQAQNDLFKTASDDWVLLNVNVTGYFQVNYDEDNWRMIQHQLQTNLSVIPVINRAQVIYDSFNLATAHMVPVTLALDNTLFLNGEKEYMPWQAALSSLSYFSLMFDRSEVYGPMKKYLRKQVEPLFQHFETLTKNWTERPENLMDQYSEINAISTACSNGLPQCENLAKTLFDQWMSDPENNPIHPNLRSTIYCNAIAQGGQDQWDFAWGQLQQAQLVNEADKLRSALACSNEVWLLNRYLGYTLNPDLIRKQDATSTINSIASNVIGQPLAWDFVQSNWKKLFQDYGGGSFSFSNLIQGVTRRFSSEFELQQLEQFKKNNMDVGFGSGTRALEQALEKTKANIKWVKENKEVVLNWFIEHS
Method: The BHK-21 and pAPN transfected BHK-21 cells were kindly gifted from Dr. Enjuanes and Dr. Delmas. The BHK-21 cells were cultured in DMEM with 5% FCS, 1% L-Glu, 1% P/S, 1% sodiumpyruvate (Gibco BRL, Life Technologies Inc., Paisley, Scotland), 1% non-essential amino acids (Gibco BRL, Life Technologies Inc., Paisley, Scotland). The pAPN transfected BHK-21 cells were grown in the same medium supplemented with 1.5 mg/ml geneticin G418 (Sigma-Aldrich Chemie GmbH, Steinheim, Germany).
To block the internalization of FLUOS-labeled-F4, 50 μM bestatin, an inhibitor of aminopeptidase N (Sigma-Aldrich Chemie GmbH, Steinheim, Germany) was incubated with BHK-21 or pAPN transfected BHK-21 cells 3 hours before addition of 25 μg FLUOS-labeled-F4. Afterwards, cells were washed 3 times with PBS. The BHK-21 or pAPN transfected BHK-21 cells were analyzed by flow cytometry with a FACScanto using CellDiva software (BD Biosciences). Ten thousand cells were analysed for each sample, and three parameters were used for further analysis: forward light scattering, sideward light scattering and green fluorescence. The median fluorescence intensity was used to measure the amount of FLUOS-labeled-F4 to the cells.

[2] = tested on: wheat germ agglutinin (WGA); assay: SPR specificity control: bestatin pre-incubated BBMV and enterocytes on immobilized WGA; assay type: binding; settings: bestatin 0 mM, 1 mM and 10 mM; F4R+ pigs
Method: The interaction between the F4ac fimbriae and BBMV or enterocytes of F4R+ and F4R− pigs was analyzed with the BIAcore®2000 biosensor (Uppsala, Sweden) using the CM3 chip. This has a short carboxymethyldextran surface to allow immobilization of F4 fimbriae via free NH2-groups using an amine-coupling kit (Biacore, Uppsala, Sweden) containing N-hydroxysuccinimide (NHS), N-ethyl-N′-[(3-dimethylamino)-propyl]-carbodiimide hydrochloride (EDC) and ethanolamine-HCl. Hereto, 100 μl of a mixture of NHS:EDC (1:1) was injected at a flow rate of 10 μl/min at 25° to activate the dextran matrix on the sensor chip, followed by F4ac at a concentration of 100 μg/ml in 0.1 M glycine buffer pH 2.3 until the amount (mol) of immobilized F4 equilized more than 500 resonance units (RU). Thousand RU corresponds to a change in the surface concentration of 1 ng/mm2 (Stenberg 1991). Subsequently, the remaining active sites of the matrix were blocked with 1 M ethanolamine-HCl and washed with HBS-N (0.01 M HEPES, 0.15 M NaCl). […] All samples used in further experiments were diluted in HBS-N buffer, which also served as running buffer during the experiments.
To check the specificity of blocking of bestatin, F4R+ and F4R− enterocytes or BBMV were pre-incubated with 0, 1 mM and 10 mM bestatin, while gently shaking for 1 hour at room temperature and injected in the WGA coated flow cell. […]

F4R on enterocytes = target: T2, F4R on enterocytes (Sus scrofa, UniProt P15145); assay: biochemical; assay type: binding, pig; settings: read-out: inhibition of adhesion of F4R+ enterocytes to F4ac
T2 construct: Brush border membrane vesicles (BBMV) of the small intestine were prepared from the F4R+ and F4R− pigs; from tissue; host or cells: pig jejunum: enterocyte preparations, BBMV, ligated jejunal loops
T2 sequence (P15145 2-963): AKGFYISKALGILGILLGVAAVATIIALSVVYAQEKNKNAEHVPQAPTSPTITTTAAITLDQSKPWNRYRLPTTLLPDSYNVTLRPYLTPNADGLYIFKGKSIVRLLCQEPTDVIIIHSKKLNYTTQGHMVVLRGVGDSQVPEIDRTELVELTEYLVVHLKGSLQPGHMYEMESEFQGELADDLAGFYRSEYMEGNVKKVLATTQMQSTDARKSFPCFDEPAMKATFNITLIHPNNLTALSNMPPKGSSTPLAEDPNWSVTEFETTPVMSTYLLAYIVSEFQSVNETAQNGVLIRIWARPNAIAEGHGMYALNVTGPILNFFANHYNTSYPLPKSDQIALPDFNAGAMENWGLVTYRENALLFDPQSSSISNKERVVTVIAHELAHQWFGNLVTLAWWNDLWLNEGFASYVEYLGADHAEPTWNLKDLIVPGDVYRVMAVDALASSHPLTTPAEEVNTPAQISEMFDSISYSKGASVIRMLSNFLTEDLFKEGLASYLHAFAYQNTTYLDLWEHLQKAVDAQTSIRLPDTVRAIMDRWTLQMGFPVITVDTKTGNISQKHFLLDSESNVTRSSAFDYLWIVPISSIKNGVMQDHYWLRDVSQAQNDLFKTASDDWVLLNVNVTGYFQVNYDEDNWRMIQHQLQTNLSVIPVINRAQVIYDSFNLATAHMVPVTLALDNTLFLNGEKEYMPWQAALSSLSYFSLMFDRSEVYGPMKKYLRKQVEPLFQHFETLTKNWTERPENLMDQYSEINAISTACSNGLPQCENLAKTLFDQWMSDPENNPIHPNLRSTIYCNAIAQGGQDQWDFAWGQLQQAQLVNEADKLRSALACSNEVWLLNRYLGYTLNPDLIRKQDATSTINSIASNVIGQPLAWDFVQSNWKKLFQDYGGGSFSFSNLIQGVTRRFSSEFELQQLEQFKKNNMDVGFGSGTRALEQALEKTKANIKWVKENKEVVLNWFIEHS
Method: The interaction between the F4ac fimbriae and BBMV or enterocytes of F4R+ and F4R− pigs was analyzed with the BIAcore®2000 biosensor (Uppsala, Sweden) using the CM3 chip. This has a short carboxymethyldextran surface to allow immobilization of F4 fimbriae via free NH2-groups using an amine-coupling kit (Biacore, Uppsala, Sweden) containing N-hydroxysuccinimide (NHS), N-ethyl-N′-[(3-dimethylamino)-propyl]-carbodiimide hydrochloride (EDC) and ethanolamine-HCl. Hereto, 100 μl of a mixture of NHS:EDC (1:1) was injected at a flow rate of 10 μl/min at 25° to activate the dextran matrix on the sensor chip, followed by F4ac at a concentration of 100 μg/ml in 0.1 M glycine buffer pH 2.3 until the amount (mol) of immobilized F4 equilized more than 500 resonance units (RU). […] Subsequently, the remaining active sites of the matrix were blocked with 1 M ethanolamine-HCl and washed with HBS-N (0.01 M HEPES, 0.15 M NaCl). […] All samples used in further experiments were diluted in HBS-N buffer, which also served as running buffer during the experiments.
The first approach was to pre-incubate the F4R+ and F4R− enterocytes or BBMV with 0, 50 and 100 μg/ml F4ac fimbriae, while gently shaking. After 1 h pre-incubation at room temperature, a gentle short spin centrifugation was performed. […]

[3] = target: T3, F4R on brush border membrane vesicles (BBMV) (Sus scrofa, UniProt P15145); assay: biochemical; assay type: binding, pig; settings: read-out: inhibition of adhesion of F4R+ BBMV to F4ac
T3 construct: Brush border membrane vesicles (BBMV) of the small intestine were prepared from the F4R+ and F4R− pigs; from tissue; host or cells: pig jejunum: enterocyte preparations, BBMV, ligated jejunal loops
T3 sequence (P15145 2-963): T2 sequence (P15145 2-963)
Method: Brush border membrane vesicles (BBMV) of the small intestine were prepared from the F4R+ and F4R− pigs by the method of Kessler (1978) with a slight modification. Enterocytes were washed twice in PBS with 0.1 mM PMSF and were resuspended in Tris-HCl buffer (2 mM, pH 7.2) containing 50 mM mannitol in ratio 3:1 (vol/vol) whereafter cells were homogenized for 2 min with an Ultra Turrax (Janke & Kunkel, I K A Labortechnik, Staufen, Germany). Subsequently, CaCl2 was added to the homogenate to a final concentration of 10 mM and placed on ice for 15 min. Then the homogenate was centrifugated at 27,000×g for 30 min and washed with Tris buffer (pH 7.5) containing 50 mM mannitol and 10 mM HEPES and centrifuged again. The pellet was resuspended in the same buffer and used for the study. The protein concentration of the obtained BBMV was determined using the bicinchoninic acid (BCA) reaction with bovine serum albumin (BSA) as standard (ICN Biomedicals, Belgium).
The interaction between the F4ac fimbriae and BBMV or enterocytes of F4R+ and F4R− pigs was analyzed with the BIAcore®2000 biosensor (Uppsala, Sweden) using the CM3 chip. […]

BBMV of F4R+ pigs = assay: F4 binding to BBMV after glycosidase or periodate treatment; design: species or system pig
Method: To remove sialic acid from the pAPN, 2 mg/ml BBMV from F4R+ pigs were incubated with soluble neuraminidase from Arthrobacter urefaciens (Calbiochem, specific for α2-3,6,8,9 linked sialic acid) for 3 hours at 37° C. according to the manufacturer's instructions. Fetuin, a sialic acid containing protein was used as a positive control and the buffer in which the neuraminidase was provided, was used as a negative control. Brush border membrane vesicles from F4R+ pigs were treated with N-glycosidase F (NEB, Beverly, Mass.) or with endoglycosidase H (NEB Beverly, Mass.) according to the manufacturer's instructions to remove all N-glycans (high mannose and complex, sialic acid containing glycans) or N-glycans of the high mannose type, respectively. RNAse B was used as a positive control and the buffer in which the enzyme was provided, was used as a negative control.
Brush border membrane vesicles from F4R+ pigs were treated with variable concentrations of NaIO4 (Sigma-Aldrich Chemie GmbH, Steinheim, Germany) in 50 mM sodiumacetate, pH 4.5, at 37° C. in the dark. Reactions were stopped by the addition of ethylene glycol to a final concentration of 20 mM. Brush border membrane vesicles from F4R− pigs were treated with the same […] and were used as a negative control.

In the case of `C/C1=C/C(=O)O[C@@H]2C[C@@H](CC[C@H](C)/C=C\CC1)O[C@@](O)([C@@H]1CSC(=O)N1)C2` [latrunculin B], the “effect on F4 internalization in pAPN-BHK cells” value (“effect on F4 internalization” below) (pAPN-BHK-21 cells) is reported as “no effect”.
For `OC[C@H]1O[C@@](CO)(O[C@H]2O[C@H](CO)[C@@H](O)[C@H](O)[C@H]2O)[C@@H](O)[C@@H]1O` [hypertonic sucrose, sucrose], the “effect on F4 internalization” value (pAPN-BHK-21 cells) was “reduced the F4 internalization”.
With `CC(C)C[C@H](NC(=O)[C@@H](O)[C@H](N)Cc1ccccc1)C(=O)O` [bestatin] the “FLUOS-labeled F4 internalization” value (pAPN-BHK-21 cells; bestatin 50 μM, added 30 minutes before FLUOS-labeled F4, pAPN-BHK cells) was 18±5.3%, the “mean fluorescence intensity after treatment of bestatin” value [1] was 1001±15 and the “interaction of pre-incubated BBMV or enterocytes with WGA” value [2] was “No difference in interaction”. It also gave an inhibition at 1000 µM (F4R on enterocytes) of 22 ± 3.3%, an inhibition at 10000 µM (F4R on enterocytes) of 72 ± 1% and an inhibition at 1000 µM [3] of 4 ± 1.2%. The inhibition at 10000 µM [3] was 10 ± 2%.
In the case of `NC12CC3CC(CC(C3)C1)C2` [amantadine], the “effect on F4 internalization” value (pAPN-BHK-21 cells) is reported as “reduced the F4 internalization”.
In the case of `[O-][I+3]([O-])([O-])O` [NaIO4], the “binding of F4 to the receptor in BBMV of F4R+ pig” value (BBMV of F4R+ pigs; 25 mM NaIO4, 30 min) is reported as “greatly reduced” and the “F4ac binding to the BBMV of F4R+ pigs” value (BBMV of F4R+ pigs; periodate, two hours treatment) is reported as “abolishing; also recorded: abolished”.
For `C=C1[C@@H](C)[C@H]2[C@H](Cc3ccccc3)NC(=O)[C@]23[C@H](OC(C)=O)/C=C/[C@@](C)(O)C(=O)[C@@H](C)C/C=C/[C@H]3[C@@H]1O` [cytochalasin D], the “effect on F4 internalization” value (pAPN-BHK-21 cells) was “reduced the F4 internalization”.
dynamin inhibitory peptide was tested, and the “effect on F4 internalization” value (pAPN-BHK-21 cells) was “reduced the F4 internalization”.
